Data: patent US20110045101A1, “FUNGICIDAL SUBSTITUTED AZOLES” (E.I. Du Pont De Nemours and Company, priority 2009, published 2011)
Like-named read-outs stand apart in the source and are kept apart here. Marks after values point to notes of the source that are not given here.

Assays:
Assay type in all cases: in vivo
Botrytis cinerea = assay: Test C: tomato Botrytis on tomato seedlings, sprayed the day before inoculation, visual disease rating; details: 100 = 100% disease control; for pest or weed control at 200 ppm: Botrytis cinerea, 120 h
Method in brief: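 Disease scored by eye on tomato seedlings inoculated with Botrytis cinerea a day after treatment. Treatment was a run-off spray at 200 ppm (equivalent to 500 g/ha), or 40 ppm where marked, in acetone/water carrying 250 ppm Trem 014.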

Septoria tritici = assay: Test G: wheat leaf blotch on wheat seedlings, sprayed the day before inoculation, visual disease rating; details: 100 = 100% disease control; for pest or weed control at 200 ppm: Zymoseptoria tritici, 504 h
Method in brief: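 Spray to run-off, 200 ppm (≈500 g/ha; starred = 40 ppm), acetone/water 50/50 + 250 ppm Trem® 014. Spore inoculation +1 d. 24° C saturated 48 h → 20° C 19 d. Visual rating.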

Phytophthora infestans = details: 200 ppm, 100 = 100% disease control
[1] = system: Erysiphe graminis f. sp. tritici; assay: Test J: wheat powdery mildew on wheat seedlings, sprayed the day before inoculation, visual disease rating; details: 100 = 100% disease control; for pest or weed control at 200 ppm: Blumeria graminis, 168 h
Method in brief: (§1)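 Ratings reflect a 200 ppm spray (≈500 g/ha) unless marked as 40 ppm. Plants were sprayed to run-off. The spray suspension was acetone/purified water 50/50 containing 250 ppm Trem 014, after first dissolving compound in acetone at 3% of final volume.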

[2] = system: Puccinia recondita f. sp. tritici; assay: Test I: wheat leaf rust on wheat seedlings, sprayed the day before inoculation, visual disease rating; details: 100 = 100% disease control; for pest or weed control at 200 ppm: Puccinia recondita, 168 h
Method in brief: as §1

Alternaria solani = assay: Test D: tomato early blight, sprayed the day before inoculation, visual disease rating; details: 100 = 100% disease control; for pest or weed control at 200 ppm: Alternaria solani, 168 h
Method in brief: as §1

Plasmopara viticola = assay: Test A: grape downy mildew, test suspension sprayed after inoculation of grape seedlings, visual disease rating; details: 200 ppm, 100 = 100% disease control
Source text: General protocol for preparing test suspensions for Tests A-J: The test compounds were first dissolved in acetone in an amount equal to 3% of the final volume and then suspended at the desired concentration (in ppm) in acetone and purified water (50/50 mix) containing 250 ppm of the surfactant Trem® 014 (polyhydric alcohol esters). The resulting test suspensions were then used in tests A-J. Spraying a 200 ppm test suspension to the point of run-off on the test plants was the equivalent of a rate of 500 g/ha. […] Grape seedlings were inoculated with a spore suspension of Plasmopara viticola (the causal agent of grape downy mildew) and incubated in a saturated atmosphere at 20° C. for 24 h. After a short drying period, the grape seedlings were sprayed with the test suspension to the point of run-off and then moved to a growth chamber at 20° C. for 5 days, after which time the grape seedlings were placed back into a saturated atmosphere at 20° C. for 24 h. Upon removal, visual disease ratings were made. […] A dash (-) indicates no test results.

Septoria nodorum = assay: Test F: wheat glume blotch on wheat seedlings, sprayed the day before inoculation, visual disease rating; details: 100 = 100% disease control; for pest or weed control at 200 ppm: Parastagonospora nodorum, 264 h
Method in brief: as §1

Rhizoctonia solani = assay: Test B: turf brown patch on bentgrass seedlings, sprayed the day before inoculation, visual disease rating; details: 200 ppm, 100 = 100% disease control
Source text: General protocol for preparing test suspensions for Tests A-J: The test compounds were first dissolved in acetone in an amount equal to 3% of the final volume and then suspended at the desired concentration (in ppm) in acetone and purified water (50/50 mix) containing 250 ppm of the surfactant Trem® 014 (polyhydric alcohol esters). The resulting test suspensions were then used in tests A-J. Spraying a 200 ppm test suspension to the point of run-off on the test plants was the equivalent of a rate of 500 g/ha. […] The test suspension was sprayed to the point of run-off on bentgrass (Agrostis sp.) seedlings. […] A dash (-) indicates no test results. All results are for 200 ppm except where followed by “*”, which indicates 40 ppm.

[3] = system: Puccinia recondita f. sp. tritici; assay: Test H: wheat leaf rust, test suspension sprayed after inoculation of wheat seedlings, visual disease rating; details: 100 = 100% disease control
Method in brief: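 Wheat seedlings inoculated with P. recondita spores, held 24 h saturated at 20 °C, then 2 days in growth chamber at 20 °C; compound suspension (acetone/water with Trem 014) sprayed to run-off afterwards. Rated visually; 200 ppm (≈500 g/ha) unless marked *, which denotes 40 ppm.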

[4] = 200 ppm, 0 = no control relative to controls
[5] = 0 = no control relative to controls

SMILES | Test C disease control rating (Botrytis cinerea; [4]) | Test G disease control rating (Septoria tritici; [4]) | Test E disease control rating (Phytophthora infestans; [5]) | Test J disease control rating [1, 4] | Test I disease control rating [2, 4] | Test D disease control rating (Alternaria solani; [4]) | Test F disease control rating (Septoria nodorum; [4]) | Test C disease control rating (Botrytis cinerea; 200 ppm, 0 = no control) | Test G disease control rating (Septoria tritici; 200 ppm, 0 = no control) | Test J disease control rating ([1]; 200 ppm, 0 = no control) | Test B disease control rating (Rhizoctonia solani; 0 = no control) | Test I disease control rating ([2]; 200 ppm, 0 = no control) | Test D disease control rating (Alternaria solani; 200 ppm, 0 = no control) | Test F disease control rating (Septoria nodorum; 200 ppm, 0 = no control) | Test B disease control rating (Rhizoctonia solani; [5]) | other results
Cc1cc(C)nc(-c2cnnn2-c2cc(Cl)cc(Cl)c2)n1 [compound 644] | 94% | 0% | 0% | 0% | 0% | 0% | 0% |  |  |  |  |  |  |  |  | Test A disease control rating (Plasmopara viticola; [5]): 0%
Cc1ccc(-n2cnc(Cl)c2-c2c(F)cccc2Cl)cc1 [compound 181] |  |  |  |  |  |  |  | 99% | 94% | 99% | 24% | 98% | 0% | 0% |  | 
Cc1ccc(-n2cnc(Cl)c2-c2ccc(F)cc2Cl)cc1 [compound 179] |  |  |  |  |  |  |  | 99% | 98% | 99% | 0% | 99% | 9% | 0% |  | Test E disease control rating (Phytophthora infestans; 0 = no control): 0%; Test A disease control rating (Plasmopara viticola; 0 = no control): 0%
COc1cc(F)c(-c2c(C)nn(C)c2-c2ccc(Cl)c(F)c2)c(F)c1 [compound 115] | 99% | 99% | 0% | 100% | 98% | 99% | 98% |  |  |  |  |  |  |  | 99% | 
Cc1nn(C)c(-c2ccc(Cl)c(F)c2)c1-c1c(F)cc(F)cc1F [compound 104] | 92% | 32% | 0% | 95% | 0% | 98% | 0% |  |  |  |  |  |  |  | 0% | 
COc1ccc(-c2c(OC)nn(C)c2-c2c(F)cc(OC)cc2F)cc1 [compound 580] | 98% | 100% | 0% | 90% | 84% | 0% | 0% |  |  |  |  |  |  |  | 88% | Test A disease control rating (Plasmopara viticola; [5]): 0%
COc1cc(F)c(-c2c(-c3ccc(F)cc3)c(OC)nn2C)c(F)c1 [compound 579] | 99% | 100% | 0% | 100% | 93% | 97% | 0% |  |  |  |  |  |  |  | 92% | Test A disease control rating (Plasmopara viticola; [5]): 0%
Cc1nc(Cl)c(-c2ccc(F)cc2)n1-c1ccc(Cl)cc1 [Compound 5, 4-chloro-1-(4-chlorophenyl)-5-(4-fluorophenyl)-2-methyl-1H-imidazole] |  |  | 0% |  |  |  |  |  |  |  |  |  |  |  | 38% | pest or weed control at 200 ppm (Botrytis cinerea; [4]): 98%; pest or weed control at 200 ppm (Septoria tritici; [4]): 100%; pest or weed control at 200 ppm [1, 4]: 99%; pest or weed control at 200 ppm [2, 4]: 88%; pest or weed control at 200 ppm (Alternaria solani; [4]): 99%; Test A disease control rating (Plasmopara viticola; [5]): 0%; pest or weed control at 200 ppm (Septoria nodorum; [4]): 0%
Fc1ccc(-c2c(Cl)ncn2-c2ccc(Cl)c(F)c2)c(Cl)c1 [compound 191] |  |  |  |  |  |  |  | 99% | 97% | 93% | 0% | 80% | 26% | 0% |  | Test E disease control rating (Phytophthora infestans; 0 = no control): 29%; Test A disease control rating (Plasmopara viticola; 0 = no control): 0%
Fc1ccc(-n2cnc(Cl)c2-c2c(F)cccc2Cl)cc1 [compound 180] |  |  |  |  |  |  |  | 99% | 98% | 100% | 88% | 99% | 99% | 0% |  | Test A disease control rating (Plasmopara viticola; 0 = no control): 0%
COc1cc(F)c(-c2c(C)nn(C)c2-c2ccc(Cl)c(OC)c2)c(F)c1 [compound 111] | 99% | 100% | 0% | 99% | 89% | 99% | 100% |  |  |  |  |  |  |  | 81% | 
Fc1ccc(-n2cnc(Cl)c2-c2ccc(F)cc2Cl)cc1 [compound 178] |  |  |  |  |  |  |  | 99% | 100% | 100% | 0% | 74% | 99% | 0% |  | Test A disease control rating (Plasmopara viticola; 0 = no control): 9%
COc1cc(F)c(-c2c(Cl)nc(Br)n2-c2ccc(C(F)(F)F)nc2)c(F)c1 [Compound 707, 5-[2-bromo-4-chloro-5-(2,6-difluoro-4-methoxyphenyl)-1H-imidazol-1-yl]-2-(trifluoromethyl)pyridine] |  |  |  |  |  |  |  |  |  |  |  |  |  |  |  | pest or weed control at 200 ppm (Botrytis cinerea; [4]): 100%; pest or weed control at 200 ppm (Septoria tritici; [4]): 99%; pest or weed control at 200 ppm [1, 4]: 100%; pest or weed control at 200 ppm [2, 4]: 100%; pest or weed control at 200 ppm (Alternaria solani; [4]): 100%; pest or weed control at 200 ppm ([3]; Puccinia recondita, 96 h, 200 ppm, 0 = no control relative to controls): 67%; pest or weed control at 200 ppm (Septoria nodorum; [4]): 100%
Cc1nc(Cl)n(-c2ccc(Cl)c(F)c2)c1-c1c(F)ccc(F)c1Cl [compound 494] |  |  |  |  |  |  |  |  |  |  |  |  |  |  |  | Test C disease control rating (Botrytis cinerea; 40 ppm (marked *)): 89* %; Test G disease control rating (Septoria tritici; 40 ppm (marked *)): 89* %; Test J disease control rating ([1]; 40 ppm (marked *)): 99* %; Test I disease control rating ([2]; 40 ppm (marked *)): 99* %; Test D disease control rating (Alternaria solani; 40 ppm (marked *)): 99* %; Test H disease control rating ([3]; 40 ppm (marked *)): 0* %; Test F disease control rating (Septoria nodorum; 40 ppm (marked *)): 0* %
